Ends that are not written are not given here. Peptide text beside a SMILES is read from it. * marks the point of attachment. FITC = O=C1OC2(c3ccc(O)cc3Oc3cc(O)ccc32)c2ccc(NC(=S)*)cc21; Ahx = NCCCCCC(=O)O

Data set [1] deals with Human iPSC-derived neural progenitor cells. The following applies: 1 μM, 2 hr; FIG. 9B.
Data set [2] in a line: Blood brain barrier penetration in mice, targeted mass spectrometry of brain lysate. It counts as in vivo. As to conditions: 24 hours; for #Spec (number of spectra) / Area (peak area): tryptic fragment in brain lysate, mice 40 mg/kg i.p. Here is the method: Wild type mice were intraperitoneally injected with a single dose (40 mg/kg) of Cdk5i, and were sacrificed 24 hours after the injection. Prior to extracting the brain, mice were transcardially perfused with 40 mL of cold phospho-buffered saline (PBS) to ensure clearance of any Cdk5i circulating in the blood that may not have crossed the blood brain barrier. After the perfusion, the brains were dissected into two hemispheres and one hemisphere was lysed with cold lysis buffer (RIPA) to extract total protein. Total protein was then briefly run on a 12% acrylamide gel to separate large proteins and then digested with a trypsin enzyme and subjected to targeted mass spectrometry analysis using Cdk5i peptide sequence of SEQ ID NO. 3 linked to a GGG spacer/linker and FITC (Cdk5i sequence: FITC-GGG-SEQ ID NO. 3).
A substantial portion (11 amino acids out of 12) of the Cdk5i sequence including the conjugated tat protein sequence were detected using mass spectrometry based on the number of spectra and peak area. Using targeted mass spectrometry, brain lysate from mice injected with Cdk5i show an enrichment for Cdk5i based on # of spectra and peak area (2nd row of data in Table 1).

Take `CC[C@H](C)[C@H](NC(=O)CNC(=O)[C@H](Cc1ccccc1)NC(=O)[C@H](C)NC(=O)[C@H](CCCNC(=N)N)NC(=O)[C@H](C)NC(=O)CCCCCNC(=S)Nc1ccc2c(c1)C(=O)OC21c2ccc(O)cc2Oc2cc(O)ccc21)C(=O)N1CCC[C@H]1C(=O)N[C@H](C(=O)N[C@@H](CCCNC(=N)N)C(=O)N[C@@H](CS)C(=O)N[C@@H](Cc1ccc(O)cc1)C(=O)N[C@@H](CO)C(=O)N[C@@H](Cc1ccc(O)cc1)C(=O)NCC(=O)N[C@@H](CCCNC(=N)N)C(=O)N[C@@H](CCCCN)C(=O)N[C@@H](CCCCN)C(=O)N[C@@H](CCCNC(=N)N)C(=O)N[C@@H](CCCNC(=N)N)C(=O)N[C@@H](CCC(N)=O)C(=O)N[C@@H](CCCNC(=N)N)C(=O)N[C@@H](CCCNC(=N)N)C(=O)N[C@@H](CCCNC(=N)N)C(=O)O)C(C)C` [FITC-Ahx-Cdk5i-Tat] ({FITC-Ahx}-ARAFGIPVRCYSYGRKKRRQRRR-OH): the “penetration of plasma membrane (intracellular FITC signals)” value in data set [1] was “able to penetrate plasma membrane”.

ARAFGIPVR: in data set [2], the “#Spec (number of spectra)” value is 12 and the “Area (peak area)” value is given as 3.83E+07.

Consider ARAFGIPVRCYS [CDK5i], for which the “portion of the Cdk5i sequence detected in brain” value in data set [2] (wild type mice, single dose 40 mg/kg intraperitoneally, perfused brain, mass spectrometry) is 11 amino acids out of 12. The “blood brain barrier penetration / enrichment in brain lysate” value in data set [2] (wild type mice, single dose 40 mg/kg intraperitoneally, targeted mass spectrometry) is “enrichment”.

For the molecule “R.AFGIPVRCYSYGR.K: tryptic fragment of Cdk5i-Tat detected in mouse brain lysate by mass spectrometry”, in data set [2], the “#Spec (number of spectra)” value turned out to be 22 and the “Area (peak area)” value was 8.42E+08.

For “R.CYSYGRK.K: tryptic fragment of Cdk5i-Tat detected in mouse brain lysate by mass spectrometry”, in data set [2], the “#Spec (number of spectra)” value is 12 and the “Area (peak area)” value turned out to be 6.13E+08.

Source of the values: patent US12384818B2, “Cyclin-dependent kinase 5 (CDK5) inhibitory peptides” (Massachusetts Institute of Technology, priority 2017, dated 2025).
